The values below come from US6610853B1, “N-(phenylsulfonyl)picolinamide derivatives, process for producing the same, and herbicide” (Kureha Kagaku Kogyo K.K., priority 2000, dated 2003).

Each structure is given as a SMILES string.

Holding throughout (assay): Test on herbicidal activity by foliar application
Type in all cases: in vivo
Common to all, as to settings: foliar spray, 1 kg/ha, plants at 1-2 leaf stage in pots, evaluated 14 days after spraying

The test system of assay [1] is Veronica hederaefolia. The procedure, abridged: (§1)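 Foliar spray, 1 kg/ha, wettable powder in solution; pot plants at 1-2 leaf stage. Read at 14 d. Score 1-5 (<30%, 30-50%, 50-70%, 70-90%, ≥90% inhibition).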
For assay [2], the system named is Stellaria media. The procedure, abridged:
as §1

Assay [3] relates to Convolvulus arvensis. The procedure, abridged:
as §1

The test system of assay [4] is Amaranthus retroflexus. The procedure, abridged: as §1
Assay [5] deals with Bidens pilosa. Summed up: as §1
For assay [6], the system named is Sinapis arvensis. The procedure, abridged: as §1
For assay [7], the system named is Matricaria chamomilla. The procedure, abridged: as §1
Assay [8] deals with Abutilon theophrasti. The procedure, abridged:
as §1

Assay [9] deals with Setaria viridis. The procedure, abridged:
as §1

Assay [10] concerns Galium aparine. Summed up: as §1
Assay [11] relates to Solanum nigrum. Summed up:
as §1

With `COc1cc(Cl)cc(C(=O)NS(=O)(=O)c2c(Cl)cccc2Cl)n1` [Compound I-581, N-[(2,6-Dichlorophenyl)sulfonyl]-4-chloro-6-methoxy-2-pyridinecarboxamide], the “Herbicidal activity, Veronica hederaefolia” value in assay [1] was 4 (70% or more-90% inhibition). Also, the “Herbicidal activity, Stellaria media” value in [2] is 5 (90% or more inhibition). For the same compound, the “Herbicidal activity, Convolvulus arvensis” value in assay [3] was 4 (70% or more-90% inhibition). Further, the “Herbicidal activity, Amaranthus retroflexus” value in assay [4] is 5 (90% or more inhibition). In assay [5], the “Herbicidal activity, Bidens pilosa” value is 5 (90% or more inhibition). Further, the “Herbicidal activity, Sinapis arvensis” value in assay [6] is recorded as 5 (90% or more inhibition). Besides, the “Herbicidal activity, Matricaria chamomilla” value in [7] is 5 (90% or more inhibition). In addition, the “Herbicidal activity, Abutilon theophrasti” value in assay [8] is 4 (70% or more-90% inhibition). Besides, in assay [9], the “Herbicidal activity, Setaria viridis” value is on record as 4 (70% or more-90% inhibition). Besides, the “Herbicidal activity, Galium aparine” value in assay [10] was 5 (90% or more inhibition). For the same compound, the “Herbicidal activity, Solanum nigrum” value in [11] was 5 (90% or more inhibition).

With `COc1ccc(C(=O)NS(=O)(=O)c2ccccc2S(=O)(=O)N(C)C)nc1Cl` [Compound I-888, N-[[2-(N,N-Dimethylaminosulfonyl)phenyl]-sulfonyl]-6-chloro-5-methoxy-2-pyridinecarboxamide], the “Herbicidal activity, Veronica hederaefolia” value in assay [1] is 4 (70% or more-90% inhibition). The “Herbicidal activity, Stellaria media” value in assay [2] was 5 (90% or more inhibition). Moreover, in assay [3], the “Herbicidal activity, Convolvulus arvensis” value was 5 (90% or more inhibition). Besides, in [4], the “Herbicidal activity, Amaranthus retroflexus” value was 5 (90% or more inhibition). Moreover, the “Herbicidal activity, Bidens pilosa” value in [5] is 5 (90% or more inhibition). In addition, the “Herbicidal activity, Sinapis arvensis” value in assay [6] is reported as 5 (90% or more inhibition). Further, the “Herbicidal activity, Matricaria chamomilla” value in assay [7] is 5 (90% or more inhibition). In addition, in assay [8], the “Herbicidal activity, Abutilon theophrasti” value is 5 (90% or more inhibition). In [9], the “Herbicidal activity, Setaria viridis” value is on record as 5 (90% or more inhibition). For the same compound, in assay [10], the “Herbicidal activity, Galium aparine” value is 5 (90% or more inhibition). Also, in assay [11], the “Herbicidal activity, Solanum nigrum” value is reported as 5 (90% or more inhibition).

With `COc1ccc(C(=O)NS(=O)(=O)c2ccccc2OC(F)(F)F)nc1OC` [Compound I-799, N-[(2-Trifluoromethoxyphenyl)sulfonyl]-5,6-dimethoxy-2-pyridinecarboxamide], the “Herbicidal activity, Veronica hederaefolia” value in assay [1] is 4 (70% or more-90% inhibition). In addition, the “Herbicidal activity, Stellaria media” value in assay [2] is 5 (90% or more inhibition). In addition, the “Herbicidal activity, Convolvulus arvensis” value in [3] was 3 (50% or more-70% inhibition). The “Herbicidal activity, Amaranthus retroflexus” value in assay [4] is on record as 3 (50% or more-70% inhibition). Further, in assay [5], the “Herbicidal activity, Bidens pilosa” value is on record as 4 (70% or more-90% inhibition). Moreover, the “Herbicidal activity, Sinapis arvensis” value in [6] is 5 (90% or more inhibition). In assay [7], the “Herbicidal activity, Matricaria chamomilla” value is reported as 5 (90% or more inhibition). The “Herbicidal activity, Abutilon theophrasti” value in assay [8] is 5 (90% or more inhibition). In assay [9], the “Herbicidal activity, Setaria viridis” value is listed as 3 (50% or more-70% inhibition). Further, the “Herbicidal activity, Galium aparine” value in assay [10] is 4 (70% or more-90% inhibition). Moreover, the “Herbicidal activity, Solanum nigrum” value in assay [11] was 4 (70% or more-90% inhibition).

In the case of `COC(=O)c1ccccc1S(=O)(=O)NC(=O)c1ccc(OC)c(Cl)n1` [Compound I-258, 2-[[[(6-Chloro-5-methoxypyridin-2-yl)carbonyl]-amino]sulfonyl]benzoic Acid Methyl Ester], the “Herbicidal activity, Veronica hederaefolia” value in [1] is 4 (70% or more-90% inhibition). The “Herbicidal activity, Stellaria media” value in assay [2] is 5 (90% or more inhibition). For the same compound, the “Herbicidal activity, Convolvulus arvensis” value in [3] is listed as 5 (90% or more inhibition). Also, in [4], the “Herbicidal activity, Amaranthus retroflexus” value is listed as 5 (90% or more inhibition). Also, in assay [5], the “Herbicidal activity, Bidens pilosa” value was 5 (90% or more inhibition). Also, the “Herbicidal activity, Sinapis arvensis” value in assay [6] is recorded as 5 (90% or more inhibition). In [7], the “Herbicidal activity, Matricaria chamomilla” value is given as 5 (90% or more inhibition). The “Herbicidal activity, Abutilon theophrasti” value in assay [8] was 5 (90% or more inhibition). Besides, the “Herbicidal activity, Setaria viridis” value in assay [9] is given as 5 (90% or more inhibition). The “Herbicidal activity, Galium aparine” value in assay [10] is given as 5 (90% or more inhibition). In addition, in [11], the “Herbicidal activity, Solanum nigrum” value is recorded as 5 (90% or more inhibition).

Consider `COc1ccc(C(=O)NS(=O)(=O)c2ccccc2S(=O)(=O)N(C)OC)nc1Br` [Compound I-830, 6-Bromo-5-methoxy-N-[[2-(N-methyl-N-methoxyaminosulfonyl]phenyl]sulfonyl]-2-pyridinecarboxamide], for which the “Herbicidal activity, Veronica hederaefolia” value in [1] is reported as 5 (90% or more inhibition). In addition, in assay [2], the “Herbicidal activity, Stellaria media” value is 5 (90% or more inhibition). Further, the “Herbicidal activity, Convolvulus arvensis” value in [3] is reported as 5 (90% or more inhibition). In assay [4], the “Herbicidal activity, Amaranthus retroflexus” value is 5 (90% or more inhibition). Moreover, the “Herbicidal activity, Bidens pilosa” value in assay [5] is recorded as 5 (90% or more inhibition). Further, the “Herbicidal activity, Sinapis arvensis” value in assay [6] is given as 5 (90% or more inhibition). For the same compound, the “Herbicidal activity, Matricaria chamomilla” value in assay [7] was 5 (90% or more inhibition). Further, in assay [8], the “Herbicidal activity, Abutilon theophrasti” value is listed as 5 (90% or more inhibition). For the same compound, the “Herbicidal activity, Setaria viridis” value in assay [9] is on record as 4 (70% or more-90% inhibition). Further, in [10], the “Herbicidal activity, Galium aparine” value is 5 (90% or more inhibition). The “Herbicidal activity, Solanum nigrum” value in assay [11] is recorded as 5 (90% or more inhibition).

For `COc1ccc(C(=O)NS(=O)(=O)c2ccccc2S(=O)(=O)N(C)C)nc1C` [Compound I-859, N-[[2-(N,N-Dimethylaminosulfonyl)phenyl]-sulfonyl]-6-methyl-5-methoxy-2-pyridinecarboxamide], the “Herbicidal activity, Veronica hederaefolia” value in assay [1] is 5 (90% or more inhibition). Moreover, the “Herbicidal activity, Stellaria media” value in assay [2] is 5 (90% or more inhibition). Besides, the “Herbicidal activity, Convolvulus arvensis” value in assay [3] was 4 (70% or more-90% inhibition). Also, the “Herbicidal activity, Amaranthus retroflexus” value in assay [4] is on record as 5 (90% or more inhibition). In addition, the “Herbicidal activity, Bidens pilosa” value in assay [5] is recorded as 5 (90% or more inhibition). Further, the “Herbicidal activity, Sinapis arvensis” value in assay [6] is 5 (90% or more inhibition). In addition, the “Herbicidal activity, Matricaria chamomilla” value in [7] is reported as 5 (90% or more inhibition). Also, the “Herbicidal activity, Abutilon theophrasti” value in assay [8] is 5 (90% or more inhibition). The “Herbicidal activity, Setaria viridis” value in [9] is listed as 5 (90% or more inhibition). In addition, in assay [10], the “Herbicidal activity, Galium aparine” value is listed as 5 (90% or more inhibition). Besides, in assay [11], the “Herbicidal activity, Solanum nigrum” value is 5 (90% or more inhibition).

For `O=C(NS(=O)(=O)c1c(Cl)cccc1Cl)c1cccc(Cl)n1` [Compound I-591, N-[(2,6-Dichlorophenyl)sulfonyl]-6-chloro-2-pyridinecarboxamide], the “Herbicidal activity, Veronica hederaefolia” value in [1] is 5 (90% or more inhibition). Also, in assay [2], the “Herbicidal activity, Stellaria media” value is given as 5 (90% or more inhibition). In assay [3], the “Herbicidal activity, Convolvulus arvensis” value is 5 (90% or more inhibition). In addition, in [4], the “Herbicidal activity, Amaranthus retroflexus” value was 5 (90% or more inhibition). Also, in assay [5], the “Herbicidal activity, Bidens pilosa” value is reported as 5 (90% or more inhibition). Further, in [6], the “Herbicidal activity, Sinapis arvensis” value was 5 (90% or more inhibition). For the same compound, in assay [7], the “Herbicidal activity, Matricaria chamomilla” value is 5 (90% or more inhibition). Moreover, the “Herbicidal activity, Abutilon theophrasti” value in assay [8] is listed as 5 (90% or more inhibition). The “Herbicidal activity, Setaria viridis” value in [9] was 1 (less than 30% inhibition). In addition, the “Herbicidal activity, Galium aparine” value in assay [10] is on record as 5 (90% or more inhibition). Further, the “Herbicidal activity, Solanum nigrum” value in [11] is on record as 5 (90% or more inhibition).

As for `COC(=O)c1ccccc1S(=O)(=O)NC(=O)c1ccc(OC)cn1` [Compound I-234, 2-[[[(5-Methoxypyridin-2-yl)carbonyl]amino]-sulfonyl]benzoic Acid Methyl Ester], the “Herbicidal activity, Veronica hederaefolia” value in [1] is 4 (70% or more-90% inhibition). In assay [2], the “Herbicidal activity, Stellaria media” value is on record as 5 (90% or more inhibition). Moreover, in [3], the “Herbicidal activity, Convolvulus arvensis” value was 4 (70% or more-90% inhibition). In [4], the “Herbicidal activity, Amaranthus retroflexus” value is 5 (90% or more inhibition). The “Herbicidal activity, Bidens pilosa” value in assay [5] is on record as 5 (90% or more inhibition). Moreover, the “Herbicidal activity, Sinapis arvensis” value in assay [6] is 5 (90% or more inhibition). The “Herbicidal activity, Matricaria chamomilla” value in [7] is given as 5 (90% or more inhibition). Further, the “Herbicidal activity, Abutilon theophrasti” value in assay [8] is reported as 5 (90% or more inhibition). Also, the “Herbicidal activity, Setaria viridis” value in assay [9] is 4 (70% or more-90% inhibition). Moreover, in assay [10], the “Herbicidal activity, Galium aparine” value was 4 (70% or more-90% inhibition). Further, the “Herbicidal activity, Solanum nigrum” value in [11] is 5 (90% or more inhibition).

Regarding `COc1ccc(C(=O)NS(=O)(=O)c2c(Cl)cccc2Cl)nc1Cl` [Compound I-618, N-[(2,6-Dichlorophenyl)sulfonyl]-6-chloro-5-methoxy-2-pyridinecarboxamide], the “Herbicidal activity, Veronica hederaefolia” value in assay [1] is 5 (90% or more inhibition). In addition, the “Herbicidal activity, Stellaria media” value in [2] is on record as 5 (90% or more inhibition). Further, the “Herbicidal activity, Convolvulus arvensis” value in assay [3] is on record as 3 (50% or more-70% inhibition). The “Herbicidal activity, Amaranthus retroflexus” value in assay [4] was 2 (30% or more-50% inhibition). The “Herbicidal activity, Bidens pilosa” value in [5] was 5 (90% or more inhibition). Besides, the “Herbicidal activity, Sinapis arvensis” value in [6] is recorded as 5 (90% or more inhibition). The “Herbicidal activity, Matricaria chamomilla” value in assay [7] was 5 (90% or more inhibition). For the same compound, the “Herbicidal activity, Abutilon theophrasti” value in [8] is given as 5 (90% or more inhibition). In addition, the “Herbicidal activity, Setaria viridis” value in assay [9] is 2 (30% or more-50% inhibition). The “Herbicidal activity, Galium aparine” value in [10] is listed as 4 (70% or more-90% inhibition). The “Herbicidal activity, Solanum nigrum” value in assay [11] is reported as 5 (90% or more inhibition).
